Data reported in patent US20240285600A1, “NOVEL MKRN1 INHIBITOR AND PHARMACEUTICAL COMPOSITION FOR PREVENTING OR TREATING OBESITY OR FATTY LIVER COMPRISING THE SAME” (UIF (University Industry Foundation), Yosei University, priority 2023, published 2024).

How the values were obtained:
[1] = system: wild-type mice fed an HFHF diet; assay: Therapeutic effect on steatohepatitis in mice fed an HFHF diet, ebastine after 16 weeks; type: in vivo; settings: HFHF diet 20 weeks
Method: (§1) Body weights were measured once every 3 to 4 days for 20 weeks, and the liver was isolated at the end of the experiment. Thereafter, a histological examination was performed.

HepG2 cells = assay: Fat accumulation in HepG2 cells treated with AMPK activator and PAOA; type: cell-based; settings: PAOA 1 mM, FIG. 8
Method: Specifically, HepG2 cells were cultured, and then treated with various types of AMPK activators. Thereafter, the cells were treated with palmitic acid and oleic acid (PAOA) at a concentration of 1 mM, and further cultured, and the degree of fat accumulation was then confirmed.

[2] = system: wild-type mice fed an HFHF diet; assay: Anti-obesity/anti-steatohepatitis effect in mice fed an HFHF diet, ebastine after 4 weeks; type: in vivo; settings: HFHF diet 20 weeks
Method: as §1

AMPK = settings: HepG2 cells, cultured for 16 or 24 hours, FIG. 9
[3] = system: wild-type mice fed a CDAHFD; assay: Anti-steatohepatitis effect in mice fed a CDAHFD, ebastine after 2 weeks; type: in vivo; settings: CDAHFD 6 weeks, vs control
Method: Body weights were measured once every 3 to 4 days for 6 weeks, and the liver was isolated at the end of the experiment. Thereafter, a histological examination was performed.

CC(C)(C)c1ccc(C(=O)CCCN2CCC(OC(c3ccccc3)c3ccccc3)CC2)cc1 [ebastine]
weight of the liver ([1]; ebastine 5 mg/kg after 16 weeks, FIG. 15C): lowest | body weight change ([1]; ebastine 1 and 5 mg/kg after 16 weeks (for 4 weeks), vs control, FIG. 15A): no difference | liver shape observed with the naked eye ([1]; ebastine after 16 weeks, FIG. 15B): close to a normal shape | expression level of MKRN1 in the liver (immunohistochemistry) ([1]; ebastine after 16 weeks, vs control, FIG. 15D): decreased | fat accumulation in the liver (H&E) ([1]; ebastine after 16 weeks, vs control, FIG. 15E): almost no fat accumulated in the liver | liver fibrosis (Sirius Red) ([1]; ebastine after 16 weeks, vs control, FIG. 15F): did not progress | liver inflammation (F4/80 IHC) ([1]; ebastine after 16 weeks, vs control, FIG. 15G): suppressed | expression levels of fibrosis- and inflammation-related genes in the liver (RT-PCR) ([1]; ebastine after 16 weeks, vs control, FIG. 15H): generally suppressed | degree of fat accumulation (HepG2 cells): effective in suppressing fat accumulation | weight of the liver ([2]; ebastine 5 mg/kg after 4 weeks, FIG. 13C): lowest | body weight gain ([2]; ebastine 1 and 5 mg/kg after 4 weeks, vs control, FIG. 13A): less | liver shape observed with the naked eye ([2]; ebastine after 4 weeks, FIG. 13B): close to a normal shape | expression level of MKRN1 in the liver (immunohistochemistry) ([2]; ebastine after 4 weeks, vs control): decreased | fat accumulation in the liver (H&E) ([2]; ebastine after 4 weeks, vs control, FIG. 13E): almost no fat accumulated in the liver | liver fibrosis (Sirius Red) ([2]; ebastine after 4 weeks, vs control, FIG. 13F): did not progress | liver inflammation (F4/80 IHC) ([2]; ebastine after 4 weeks, vs control, FIG. 13G): suppressed | amount of AMPK (AMPK): increased | amount of phosphorylated AMPK (AMPK): increased | body weight ([3]; ebastine 1 and 5 mg/kg after 2 weeks, FIG. 14A): no significant difference | liver condition observed with the naked eye ([3]; ebastine after 2 weeks, FIG. 14B): appeared similar | liver weight ([3]; ebastine after 2 weeks, FIG. 14C): no difference | expression level of MKRN1 in the liver (immunohistochemistry) ([3]; ebastine after 2 weeks, FIG. 14D): decreased | fat accumulation in the liver (H&E) ([3]; ebastine after 2 weeks, FIG. 14E): almost no fat accumulated in the liver | liver fibrosis (Sirius Red) ([3]; ebastine after 2 weeks, FIG. 14F): did not progress | liver inflammation (F4/80 IHC) ([3]; ebastine after 2 weeks, FIG. 14G): suppressed
